Source: ChEMBL document CHEMBL1136628, “Acylcyclohexanedione derivatives as potential in vivo sequential inhibitors of 4-hydroxyphenylpyruvate dioxygenase and GA(20) 3beta-hydroxylase” (Bioorg Med Chem Lett, 2003)

Target: 4-hydroxyphenylpyruvate dioxygenase (Sus scrofa, UniProt Q02110)
Experiment: In vitro inhibitory concentration required against 4-hydroxyphenylpyruvate dioxygenase (4-HPPD) taken from pig liver

Chain of 4-hydroxyphenylpyruvate dioxygenase (Q02110 whole entry): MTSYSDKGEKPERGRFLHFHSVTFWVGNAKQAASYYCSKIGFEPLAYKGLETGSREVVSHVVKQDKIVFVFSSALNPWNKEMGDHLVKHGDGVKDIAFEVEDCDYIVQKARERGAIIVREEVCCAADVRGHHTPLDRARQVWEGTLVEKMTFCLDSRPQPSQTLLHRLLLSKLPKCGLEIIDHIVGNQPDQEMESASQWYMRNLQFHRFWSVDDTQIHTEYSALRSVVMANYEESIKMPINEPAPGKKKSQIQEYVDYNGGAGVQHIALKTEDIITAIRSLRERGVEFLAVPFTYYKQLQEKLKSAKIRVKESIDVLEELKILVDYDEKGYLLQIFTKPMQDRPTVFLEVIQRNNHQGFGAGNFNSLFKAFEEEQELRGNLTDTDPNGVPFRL

IC50: 10 µM
SMILES: CCOC(=O)C1CC(=O)C(C(=O)C2CC2)=C(NC(=O)C2CC2)C1 (stereo unspecified)
